Converted amounts (≈) assume the structure as drawn.
Columns and labels:
Botrytis cinerea [1] = test: MIC determination by serial dilution in microtitre plates; assay type: cell-based; conditions: lowest concentration without mycelial growth, V8 juice nutrient solution, 20°C, 6-8 days, visual inspection
Description: (§1) Determination of MIC-Values of compounds against various phytopathogenic fungi
(§2) The MIC (Minimum Inhibition Concentration)-values were determined by serial dilution tests using 48-well microtitre plates. The dilution of the test compounds in the nutrient solution and the distribution to the wells were carried out by a TECAN RSP 5000 robotic sample processor.
(§3) For preparation of the nutrient solution, V8 juice (Trade Mark) was neutralised with calcium carbonate and centrifuged. The supernatant was diluted with distilled water (1:5) to the final concentration.
(§4) The fungi (Alternaria solani, Botrytis cinerea, Septoria nodorum) were added into the wells as a droplet of spore suspension. The microtitre plates were then incubated at 20°C for 6-8 days. The MIC-value was determined by visual inspection of the plates. In the case of Alternaria solani and Botrytis cinerea, the lowest concentration in the dilution series without mycelial growth was defined to be the MIC-value. For Septoria nodorum, no MIC-value but only a strong inhibition of growth was regularly observed.

Alternaria solani [2] = test: as above; assay type: cell-based; conditions: lowest concentration without mycelial growth, V8 juice nutrient solution, 20°C, 6-8 days, visual inspection
Description: as §1, §2, §3, §4

Venturia inaequalis = test: Fungicidal activity against Venturia inaequalis on Malus sp. (apple cuttings, protectant spray); assay type: in vivo; parameters: key: 0 = no infection; 1 = 1-10% infection; 2 = 11-40% infection; 3 = 41-100% infection; conditions: extent of infection score; apple cuttings variety Morgenduft; test compound 400 ppm; infected after 24 hours; assessed after about 14 days
Description: Fungicidal activity against Venturia inaequalis on Malus sp.
Apple cuttings of the variety Morgenduft, which are about 6 weeks old, were treated with a solution of the test compound (400 ppm) in water/acetone/Triton X or water/methanol/Triton X. After 24 hours, the plants were infected with a conidia suspension of Venturia inaequalis (about 50,000 conidia/ml), incubated in a dark climatic chamber at a relative humidity of 100% for 48 hours and then kept at a relative humidity of 95-99% and temperature of 18-20°C during the day and 13°C during the night for about 14 days. The extent of infection was assessed according to the following scheme:- • 0 = no infection • 1 = 1-10% infection • 2 = 11-40% infection • 3 = 41-100% infection The results of these tests are set out in Table II below:-

Alternaria solani [3] = test: Activity against tomato early blight (AS), Example 120; assay type: in vivo; conditions: tomato seedlings, foliar spray as described under (a) (1000 ppm), contact prophylactic; disease control rating
Pyricularia oryzae = assay type: in vivo; conditions: rice seedlings, foliar spray 1000 ppm, direct therapeutic; disease control rating
Botrytis cinerea [4] = test: Direct protectant activity against broad bean grey mould (BCB), Example 120; assay type: in vivo; conditions: broad bean plants, foliar spray 1000 ppm, disease control rating
[5] = tested on: Erysiphe graminis f.sp. hordei; test: Activity against barley powdery mildew (EG), Example 120; assay type: in vivo; conditions: barley seedlings, foliar spray 1000 ppm, direct therapeutic; disease control rating
Rhizoctonia solani = test: Activity against Rhizoctonia in-vitro (RSI), Example 120; assay type: cell-based; conditions: 50 ppm compound, 2.5% acetone, 20°C, 10 days, mycelial growth, rating
Leptosphaeria nodorum = test: Activity against wheat leafspot (LN), Example 120; assay type: in vivo; conditions: wheat plants, foliar spray 1000 ppm, direct therapeutic; disease control rating
[6] = tested on: Pseudocercosporella herpotrichoides; test: Activity against wheat eyespot in-vitro (PHI), Example 120; assay type: cell-based; conditions: 50 ppm compound, 2.5% acetone, 20°C, 12 days, mycelial growth, rating

| SMILES | MIC (Botrytis cinerea [1]) [µg/mL] | MIC (Alternaria solani [2]) [µg/mL] | Activity (Venturia inaequalis) | other results |
| --- | --- | --- | --- | --- |
| Cc1ccc(-c2c(Cl)nc3ncnn3c2NC2CCCC2)cc1 [Example 1, 5-chloro-6-(4-methylphenyl)-7-cyclo-pentylamino-1,2,4-triazolo[1,5-a]pyrimidine] | 12.5 (≈ 38.1 µM) | 1.56 (≈ 4.76 µM) | 1 (1 = 1-10% infection) |  |
| Brc1nc2ncnn2c(NC2CCCC2)c1-c1ccccc1 [Example 2, 5-bromo-6-phenyl-7-cyclopentylamino-1,2,4-triazolo[1,5-a]pyrimidine] |  |  | 0 |  |
| COc1ccc(-c2cnc3ncnn3c2NC2CCCC2)cc1 [Example 3, 6-(4-methoxyphenyl)-7-cyclopentylamino-1,2,4-triazolo[1,5-a]pyrimidine] |  |  | 2.5 |  |
| CNc1nc2ncnn2c(NC2CCCC2)c1-c1ccccc1 [Example 4, 5-methylamino-6-phenyl-7-cyclopentylamino-1,2,4-triazolo[1,5-a]pyrimidine] |  |  | 2.3 |  |
| Clc1ccccc1-c1c(I)nc2ncnn2c1NC1CCCC1 [Example 6, 5-iodo-6-(2-chlorophenyl)-7-cyclopentylamino-1,2,4-triazolo[1,5-a]pyrimidine] | 6.25 (≈ 14.2 µM) | 3.13 (≈ 7.12 µM) |  |  |
| CC(C)Nc1c(-c2ccccc2F)c(Cl)nc2ncnn12 [Example 41] | 25 (≈ 81.8 µM) | 12.5 (≈ 40.9 µM) | 0 | Fungicidal Activity AS (Alternaria solani [3]): 2 (2 = greater than 80% disease control); Fungicidal Activity PO (Pyricularia oryzae): 2 (2 = greater than 80% disease control); Fungicidal Activity BCB (Botrytis cinerea [4]): 2 (2 = greater than 80% disease control); Fungicidal Activity EG [5]: 2 (2 = greater than 80% disease control); Fungicidal Activity RSI (Rhizoctonia solani): 2 (2 = greater than 80% disease control); Fungicidal Activity LN (Leptosphaeria nodorum): 2 (2 = greater than 80% disease control); Fungicidal Activity PHI [6]: 1 (1 = about 50-80% disease control) |

Reference: patent EP0782997A2, “Triazolopyrimidine derivatives” (SHELL INTERNATIONALE RESEARCH MAATSCHAPPIJ B.V., priority 1991, dated 1993)
